These are literature values, as cited in US5843891A, “Pharmaceutical acceptable compositions containing an alcohol and a hydrophobic drug” (priority 1993, dated 1998).

For the data set the following is noted: in water at 20° C.
Regarding `CCO` [ethyl alcohol], the solubility in water entry was “infinitely soluble”.

Regarding `CCCCCCCCCCO` [1-decyl alcohol], the solubility in water entry is listed as “essentially insoluble”.

For `CCCCCCCCO` [1-octyl alcohol], the solubility in water is 0.05 g per 100 g.

For the compound `CCCCCCO` [Example 1-hexyl, 1-hexyl], the solubility in water is reported as 0.6 g per 100 g.
